Read-outs that look alike come from different tables or passages of the source. Marks after values point to notes of the source that are not given here.
Legend:
SA-1199B [1] = experiment: Membrane potential (polarisation) assays, BacLight kit, DiOC2(3); format: cell-based, Staphylococcus aureus; conditions: 30 min
Protocol: Membrane potential assays were carried out by measuring the effect of 1 and 37a on the membrane potential using the BacLight Bacterial Membrane Potential Kit (Molecular Probes, Life Technologies) according to the manufacturer’s instructions. Briefly, SA-1199B was grown in MHB at 37 °C until reaching an OD600 of 0.6. Bacterial cells were then washed in PBS and diluted to 1 × 10^6 CFU/mL with filtered PBS (filter 0.22 µm) in flow cytometry tubes. Ten microliters of 3 mM 3,3-diethyloxacarbocyanine iodide (DiOC2(3) in DMSO) was added to each tube (final concentration 30 µM) and mixed. Then, 1 or 37a from a stock solution in DMSO (10 mg/mL) was added to reach final concentrations of 1, 5, and 10 µg/mL. As positive control, 10 µL of 500 µM carbonyl cyanide m-chlorophenylhydrazone (CCCP, final concentration 5 µM) was used to eradicate the proton gradient by eliminating the membrane potential. The samples were analysed after 30 min by measuring the fluorescence using a cytometer Attune NxT (ThermoFisher Scientific) with a laser emitting at 488 nm and collecting in the green and red channels. The red to green fluorescence ratio was determined and normalised against the emission from the DiOC2(3) blank tube having 1 ml of the bacterial suspension and a final concentration of DiOC2(3) of 30 µM. The results are presented as the percentage of depolarised membranes compared with the drug-free control.
Since efflux pumps need a proton gradient along the bacterial membrane, its modification/disruption can lead to an efflux inhibition. However, this effect cannot be related to a specific EPI activity; on the contrary, it relies on a non-specific interruption of the energy source (protons) that efflux pumps use to extrude their substrates by an antiport mechanism. A typical example of a compound inhibiting efflux pumps activity by this non-specific mechanism is represented by carbonyl cyanide m-chlorophenyl hydrazone (CCCP). […] Membrane polarisation was assessed by cytofluorimeter analysis using the fluorescent probe 3,3-diethyloxacarbocyanine iodide (DiOC2(3)) as its distribution is proton gradient-sensitive.

S. aureus SA-1199B = format: cell-based, Staphylococcus aureus; conditions: for compound concentration reducing the CPX MIC by 4-fold: chequerboard with CPX; for synergistic effect with CPX: compound concentration below 25 µg/mL
Protocol: (§1) MICs assays were performed using broth microdilution method in 96 wells-microtiter plates, following the CLSI guidelines.
Chequerboard assays and time-kill curves were performed as previously described.

[2] = system: human leukemic monocyte cell line (THP-1); parameters: method as in PMID 30067360; conditions: THP-1 cells; cited from earlier work
[3] = parameters: method as in PMID 30067360; conditions: in silico and in vitro, mouse liver microsomes 2 h; cited from earlier work
SA-1199B [4] = system: SA-1199B; parameters: method as in PMID 30067360; conditions: as previously reported; cited from earlier work
[5] = system: human leukemic monocyte cell line (THP-1); experiment: Cell viability assay (ATP bioluminescence); conditions: ratio between CC50 (THP-1) and minimum EPI concentration able to reduce by 4-fold CPX MIC
Protocol: THP-1 cells were grown in RPMI 1640 supplemented with 10% heat-inactivated foetal calf serum, 10,000 units of penicillin, and 10 µg of streptomycin/mL overnight to confluence. […] Cell viability was then evaluated using an ATP bioluminescence kit (Via Light kit; Cambrex). Results are expressed as 50% cytotoxic concentration (CC50). The CC50 was defined as the concentration required to reduce the cell number by 50% compared to that for the untreated controls. Each concentration was tested in triplicate.

[6] = system: S. aureus strain SA-1199B (norA+/GrlA mutation); experiment: Synergistic assays: compounds at 25 µg/mL with scalar concentrations of CPX; format: cell-based, Staphylococcus aureus; conditions: compound at 25 µg/mL
Protocol: as §1
(data not shown). […] Worthy of note, among the five active compounds, three were thiophene derivatives (35b, 36b and 37a) displaying their activity regardless of the position of the sulphur atom on the thiophene ring.

Structure (SMILES) | melting point [°C] | synergistic effect / EPI activity with CPX [6] | other results
CCN(CC)CCOc1cc(-c2cccs2)nc2ccccc12 | 84 to 86 | – | –
CCN(CC)CCOc1cc(-c2ccsc2)nc2ccccc12 | 66 to 67 | – | –
Clc1ccc(-c2cc(OCCN3CCCCC3)c3ccccc3n2)s1 | 99 to 101 | – | –
CCCOc1ccc(-c2cc(OCCN(CC)CC)c3ccccc3n2)cc1 [Compound 1, reference compound] | – | – | depolarised bacterial membrane (SA-1199B [1]; 1 µg/mL): retained a significant depolarising effect; depolarised bacterial membrane (SA-1199B [1]; 5 µg/mL): retained a significant depolarising effect; depolarised S. aureus membrane (SA-1199B [1]; 10 µg/mL): > 50%
CCCOc1ccc(-c2cc(OCCN3CCCCC3)c3cc(OC)ccc3n2)cc1 [Compound 2] | – | – | CPX MIC reduction (S. aureus SA-1199B; compound at 0.39 µg/mL): 2 fold; CC50 [2]: >100^b µg/mL; metabolic stability [3]: good metabolic stability; depolarised bacterial membrane (SA-1199B [4]): about 20%; SI, selectivity index [5]: >128
CCCOc1ccc(-c2cc(OCCN(CC)CC)c3ccccc3n2)nc1.Cl [Compound 30a, N,N-diethyl-2-{[2–(5-propoxypyridin-2-yl)quinolin-4-yl]oxy}ethanamine hydrochloride] | 212 to 213 | – | compound concentration reducing the CPX MIC by 4-fold (S. aureus SA-1199B): 6.25 µg/mL; reduction of the CPX MIC [6]: 4 fold
CCCOc1ccc(-c2cc(OCCN3CCCCC3)c3ccccc3n2)nc1 [Compound 30b, 4–(2-Piperidin-1-ylethoxy)-2–(5-propoxypyridin-2-yl)quinoline] | 90 to 91 | – | compound concentration reducing the CPX MIC by 4-fold (S. aureus SA-1199B): 12.5 µg/mL; reduction of the CPX MIC [6]: 4 fold
CCCOc1ccc(-c2cc(OCCN(CC)CC)c3ccccc3n2)cn1.Cl [Compound 31a, N,N-diethyl-2-{[2–(6-propoxypyridin-3-yl)quinolin-4-yl]oxy}ethanamine hydrochloride] | 188 to 190 | lost EPI activity | –
CCCOc1ccc(-c2cc(OCCN3CCCCC3)c3ccccc3n2)cn1.Cl [Compound 31b, 4–(2-Piperidin-1-ylethoxy)-2–(6-propoxypyridin-3-yl)quinoline hydrochloride] | 223 to 224 | lost EPI activity | –
CCN(CC)CCOc1cc(-c2ccccn2)nc2ccccc12.Cl [Compound 32a, N,N-diethyl-2-[(2-pyridin-2-ylquinolin-4-yl)oxy]ethanamine hydrochloride] | 173 to 174 | lost EPI activity | –
c1ccc(-c2cc(OCCN3CCCCC3)c3ccccc3n2)nc1 [Compound 32b, 4–(2-Piperidin-1-ylethoxy)-2-pyridin-2-ylquinoline] | 77 to 79.5 | lost EPI activity | –
CCN(CC)CCOc1cc(-c2cccnc2)nc2ccccc12.Cl [Compound 33a, N,N-diethyl-2-[(2-pyridin-3-ylquinolin-4-yl)oxy]ethanamine hydrochloride] | 181 to 182 | lost EPI activity | –
c1cncc(-c2cc(OCCN3CCCCC3)c3ccccc3n2)c1 [Compound 33b, 4–(2-Piperidin-1-ylethoxy)-2-pyridin-3-ylquinoline] | 101.5 to 102.5 | lost EPI activity | –
CCN(CC)CCOc1cc(-c2ccncc2)nc2ccccc12 [Compound 34a, N,N-diethyl-2-[(2-pyridin-4-ylquinolin-4-yl)oxy]ethanamine] | 73.5 to 74 | lost EPI activity | –
Cl.c1ccc2c(OCCN3CCCCC3)cc(-c3ccncc3)nc2c1 [Compound 34b, 4–(2-Piperidin-1-ylethoxy)-2-pyridin-4-ylquinoline hydrochloride] | 183.5 to 185 | lost EPI activity | –
Cl.c1csc(-c2cc(OCCN3CCCCC3)c3ccccc3n2)c1 [Compound 35b, 4–(2-piperidin-1-ylethoxy)-2–(2-thienyl)quinoline hydrochloride] | 208 to 209.5 | – | synergistic effect with CPX (S. aureus SA-1199B): did not retain any synergistic effect; reduction of the CPX MIC [6]: 4 fold
c1ccc2c(OCCN3CCCCC3)cc(-c3ccsc3)nc2c1 [Compound 36b, 4–(2-Piperidin-1-ylethoxy)-2–(3-thienyl)quinoline] | 109.5 to 111 | – | synergistic effect with CPX (S. aureus SA-1199B): did not retain any synergistic effect; reduction of the CPX MIC [6]: 4 fold
